Test results: patent publication US11077113B2, “6-aryl-4-morpholin-1-ylpyridone compounds useful for the treatment of cancer and diabetes” (priority 2016, dated 2021)

Legend:
autophagy in HOS cells = experiment: High Content Screening Autophagy Assay (GFP-LC3 foci); type: cell-based; conditions: Homo sapiens; HOS cells expressing GFP-LC3; autophagy activated with KU-0063794 500 nM plus Bafilomycin A1 5 nM; 6 hours; foci area per cell; read-out: Median IC50 μM Cellular assay
Experimental: High Content Screening Autophagy Assay
Human osteosarcoma cells (HOS) stably expressing a Green Fluorescent Protein (GFP) tagged LC3 (GFP-LC3) were used to determine the inhibitory effect on autophagy of proprietary compounds. For that purpose, autophagy was activated by using the mTOR inhibitor KU-0063794 at 500 nM in the presence of Bafilomycin A1 (Sigma-Aldrich) at 5 nM. Shortly, cells were plated overnight in clear bottom 96-well plates in DMEM-High Modified media (Hi-Clone Cat #SH30285.01). At the start of the experiment, the media was removed and replaced with fresh media containing the mTOR inhibitor, Bafilomycin A1 and the vehicle or a test compound as indicated. After 6 hours the media was removed, cells were washed twice with ice-cold phosphate buffered saline (PBS) and fixed with 4% paraformaldehyde for 20 minutes at room temperature. Then the cells were washed twice with ice-cold PBS before adding Hoechst 33342 at 1 μg/ml in PBS for nuclear staining. After incubation overnight at 4° C., cells were washed once with PBS to remove the excess of dye and 100 μl of PBS was added to each well. Images were acquired at 20× magnification, 6 images per well, using the ImageXpress automated microscope (Molecular Devices Inc.) and analyzed with MetaXpress software to identify LC3-GFP foci. Foci area per cell values were used to generate dose response curves and IC50 calculated using non-linear fitting analysis in GraphPad Prism software.
The results of the assay are shown in Table 2 (Median IC50 μM Cellular assay).

Vps34 enzyme = Vps34 enzyme (Homo sapiens (Human), UniProt Q8NEB9); experiment: Vps34 Biochemical Assay (Adapta TR-FRET); conditions: 20 μM ATP and 200 μM PI:PS in substrate mix, 1 h at room temperature, read-out: Median IC50 μM Adapta
Vps34 enzyme, sequence (Q8NEB9 whole entry): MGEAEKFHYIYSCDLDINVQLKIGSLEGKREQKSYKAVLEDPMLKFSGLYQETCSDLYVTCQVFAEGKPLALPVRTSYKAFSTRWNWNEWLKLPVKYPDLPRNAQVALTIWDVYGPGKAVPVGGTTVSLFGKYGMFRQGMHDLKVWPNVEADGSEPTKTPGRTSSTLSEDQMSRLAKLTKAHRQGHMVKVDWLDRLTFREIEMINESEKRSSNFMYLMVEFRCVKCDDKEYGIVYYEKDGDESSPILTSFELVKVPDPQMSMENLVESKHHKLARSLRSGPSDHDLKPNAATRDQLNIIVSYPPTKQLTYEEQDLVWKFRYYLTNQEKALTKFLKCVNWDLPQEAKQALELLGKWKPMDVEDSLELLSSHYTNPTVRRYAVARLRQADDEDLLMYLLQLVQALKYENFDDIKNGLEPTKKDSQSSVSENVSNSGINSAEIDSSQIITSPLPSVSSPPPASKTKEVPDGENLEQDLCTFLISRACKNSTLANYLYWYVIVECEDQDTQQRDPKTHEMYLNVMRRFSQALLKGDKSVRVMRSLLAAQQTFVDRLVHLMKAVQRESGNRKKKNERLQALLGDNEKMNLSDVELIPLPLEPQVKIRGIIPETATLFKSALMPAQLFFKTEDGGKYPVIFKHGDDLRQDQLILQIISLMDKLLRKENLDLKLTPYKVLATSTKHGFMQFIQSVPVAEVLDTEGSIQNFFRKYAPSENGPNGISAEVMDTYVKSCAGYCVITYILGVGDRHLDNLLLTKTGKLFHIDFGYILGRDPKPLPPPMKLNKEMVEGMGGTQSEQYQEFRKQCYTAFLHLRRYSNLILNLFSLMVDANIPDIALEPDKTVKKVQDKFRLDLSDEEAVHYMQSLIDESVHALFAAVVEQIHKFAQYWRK
Experimental: Dilution series of compounds of the invention were prepared in DMSO at 100 times the final assay concentration (n1=n0/3 in 10 points). The compounds were further diluted to 4 times the assay concentration in assay buffer (Life technologies buffer Q, PV5125, diluted 5 times supplemented with 2 mM DTT and 2 mM MnCl2). 2.5 μl of the diluted compounds were added to a 384 well assay plate followed by 2.5 μl of 16.5 nM Vps34 enzyme (Life technologies, PV5126). Enzyme and compounds were preincubated at rt for 15 min. Then 5 μl of substrate mix containing 20 μM ATP (Life technologies, PV3227) and 200 μM PI:PS substrate (Life technologies, PV5122) in assay buffer was added to the wells containing compound and enzyme and mixing was performed by pipetting several times. The reaction was incubated at room temperature for 1 h. Then 5 μl stop-detection mix, prepared as described in the adapta kinase assay kit instructions (Life technologies, PV5099) containing Adapta Eu-anti-ADP antibody (2.3 nM), Alexa Fluor 647 ADP tracer (9 nM) and EDTA (30 mM) in TR-FRET buffer, was added to quench the reaction. Mixing was performed by pipetting several times. The assay plate was then incubated at room temperature for 30 min and read with Artemis micro plate reader. Percent inhibition of the compounds as compared to DMSO treated control samples was calculated. By the use of Dotmatics software compound concentration versus percent inhibition was fitted to generate IC50 values.

For `Cc1ccncc1-c1cc(N2CCOCC2C)cc(=O)[nH]1` (stereo not drawn) [Example 5, 4-(3-methylmorpholin-4-yl)-6-(4-methyl-3-pyridyl)-1H-pyridin-2-one], the IC50 (autophagy in HOS cells) was 14 µM and the IC50 (Vps34 enzyme) was 0.1 µM.

Work on `Cc1ccc2ncccc2c1-c1cc(N2CCOC[C@H]2C)cc(=O)[nH]1` [Example 16, 4-[(3R)-3-methylmorpholin-4-yl]-6-(6-methyl-5-quinolyl)-1H-pyridin-2-one] yielded an IC50 (Vps34 enzyme) of 0.2 µM.

For `C[C@@H]1COCCN1c1cc(-c2cccnc2C(F)(F)F)[nH]c(=O)c1` [Example 10, 4-[(3R)-3-methylmorpholin-4-yl]-6-[2-(trifluoromethyl)-3-pyridyl]-1H-pyridin-2-one], the IC50 (autophagy in HOS cells) was 0.09 µM and the IC50 (Vps34 enzyme) was 0.02 µM.

`Cc1cscc1-c1cc(N2CCOC[C@H]2C)cc(=O)[nH]1` [Example 14, 4-[(3R)-3-methylmorpholin-4-yl]-6-(4-methyl-3-thienyl)-1H-pyridin-2-one] was tested, and the IC50 (Vps34 enzyme) was 0.03 µM.

`C[C@@H]1COCCN1c1cc(-c2ccoc2)[nH]c(=O)c1` [Example 13, 6-(3-furyl)-4-[(3R)-3-methylmorpholin-4-yl]-1H-pyridin-2-one] showed an IC50 (Vps34 enzyme) of 0.2 µM.

Work on `C[C@@H]1COCCN1c1cc(-c2ccccc2Cl)[nH]c(=O)c1` [Example 11, 6-(2-chlorophenyl)-4-[(3R)-3-methylmorpholin-4-yl]-1H-pyridin-2-one] yielded an IC50 (autophagy in HOS cells) of 0.6 µM and an IC50 (Vps34 enzyme) of 0.007 µM.

`Cn1c(-c2ccccc2Cl)cc(N2CCOCC2)cc1=O` [Example 2, 6-(2-chlorophenyl)-1-methyl-4-morpholino-pyridin-2-one] showed an IC50 (autophagy in HOS cells) of 3 µM and an IC50 (Vps34 enzyme) of 0.05 µM.

For `Cc1ccccc1-c1cc(N2CCOC[C@H]2C)cc(=O)[nH]1` [Example 9, 4-[(3R)-3-methylmorpholin-4-yl]-6-(o-tolyl)-1H-pyridin-2-one], the IC50 (Vps34 enzyme) was 0.03 µM.

Work on `C[C@@H]1COCCN1c1cc(-c2ccc(-c3ccn[nH]3)cc2)[nH]c(=O)c1` [Example 17, 4-[(3R)-3-methylmorpholin-4-yl]-6-[4-(1H-pyrazol-5-yl)phenyl]-1H-pyridin-2-one] yielded an IC50 (Vps34 enzyme) of 0.2 µM.

In the case of `CC1COCCN1c1cc(-c2cncnc2)[nH]c(=O)c1` (stereo not drawn) [Example 6, 4-(3-methylmorpholin-4-yl)-6-pyrimidin-5-yl-1H-pyridin-2-one], the IC50 (autophagy in HOS cells) is reported as 14 µM and the IC50 (Vps34 enzyme) is reported as 1 µM.

`CC1COCCN1c1cc(-c2ccccc2-c2ccccc2)[nH]c(=O)c1` (stereo not drawn) [Example 7, 4-(3-methylmorpholin-4-yl)-6-(2-phenylphenyl)-1H-pyridin-2-one] showed an IC50 (Vps34 enzyme) of 0.06 µM.

For `CC1COCCN1c1cc(-c2ccccc2Cl)n(C)c(=O)c1` (stereo not drawn) [Example 4, 6-(2-chlorophenyl)-1-methyl-4-(3-methylmorpholin-4-yl)pyridin-2-one], the IC50 (autophagy in HOS cells) was 1 µM and the IC50 (Vps34 enzyme) was 0.02 µM.

Compound `C[C@@H]1COCCN1c1cc(-c2cc(F)ccc2Cl)[nH]c(=O)c1` [Example 8, 6-(2-chloro-5-fluoro-phenyl)-4-[(3R)-3-methylmorpholin-4-yl]-1H-pyridin-2-one] has an IC50 (autophagy in HOS cells) of 1 µM and an IC50 (Vps34 enzyme) of 0.01 µM.

In the case of `C[C@@H]1COCCN1c1cc(-c2ccccc2NS(C)(=O)=O)[nH]c(=O)c1` [Example 15, N-[2-[4-[(3R)-3-methylmorpholin-4-yl]-6-oxo-1H-pyridin-2-yl]phenyl]methanesulfonamide], the IC50 (Vps34 enzyme) is reported as 0.2 µM.

For `O=c1cc(N2CCOCC2)cc(-c2ccccc2Cl)[nH]1` [Example 1, 6-(2-chlorophenyl)-4-morpholino-1H-pyridin-2-one], the IC50 (autophagy in HOS cells) was 2 µM and the IC50 (Vps34 enzyme) was 0.03 µM.

`C[C@@H]1COCCN1c1cc(-c2ccccc2C(F)(F)F)[nH]c(=O)c1` [Example 12, 4-[(3R)-3-methylmorpholin-4-yl]-6-[2-(trifluoromethyl)phenyl]-1H-pyridin-2-one] was tested, and the IC50 (autophagy in HOS cells) was 0.6 µM and the IC50 (Vps34 enzyme) was 0.007 µM.

`CC1COCCN1c1cc(-c2ccccc2Cl)[nH]c(=O)c1` (stereo not drawn) [Example 3, 6-(2-chlorophenyl)-4-(3-methylmorpholin-4-yl)-1H-pyridin-2-one] was tested, and the IC50 (autophagy in HOS cells) was 0.7 µM and the IC50 (Vps34 enzyme) was 0.01 µM.
